The results in this text go back to publication PMC5984089, “FBXW7 regulates DISC1 stability via the ubiquitin-proteosome system” (Molecular Psychiatry, 2017).

Residues, ends and D or L forms follow the SMILES beside them. *: point of attachment. Cbz = O=C(OCc1ccccc1)*

The subject of the test is HA-DISC1, HEK293 cells. Description: HA-DISC1 protein level in transfected HEK293 cells. The test is classed as cell-based, human. Conditions: MG132 10 μM, Figure 1c, n=3. On the procedure: HEK293 cells were sourced from ATCC (CRL-1573) and cultured as described in the manufacturer’s protocol. DMEM (SIGMA) supplemented with 10% fetal bovine serum, 2 mM L-glutamine, […] penicillin-streptomycin at 37 °C in a humidified atmosphere of 5% CO2. The cells were passaged at about 80% confluency. Cells were transfected with plasmid DNA using polyfect transfection reagent (Qiagen) according to the manufacturer’s instructions. HEK293 cells were treated with the pharmacological agents cycloheximide (C7698) and MG132 (M7449) (Sigma-Aldrich) or DISC1 disruptor peptides (custom synthesized by Severn Biotech) as described in the text.
Briefly, detergent-soluble proteins were isolated from cells by disruption in lysis buffer 20 mM Tris-HCl (pH 7.5), 150 mM NaCl, 1 mM Na2EDTA, 1 mM EGTA, 1% triton, 2.5 mM sodium pyrophosphate, 1 mM β-glycerophosphate, 1 mM Na3VO4, 1 μg ml^–1 leupeptin, 10 mM DTT with Roche protease inhibitor, phosSTOP (Roche, 04906837001). Detergent-insoluble proteins were removed by centrifugation at 10 000 g for 10 min, and the soluble fraction was retained. Cell lysates were adjusted to equal protein amount (1 μg μl^–1) using cell lysis buffer. Cell lysates normalized for the protein concentration were incubated with mouse IgG (Millipore, 12487) Protein A agarose beads for 2 h at 4 °C. […] The complexes were analyzed on SDS PAGE. […]

For `CC(C)C[C@@H](C=O)NC(=O)[C@H](CC(C)C)NC(=O)[C@H](CC(C)C)NC(=O)OCc1ccccc1` [MG132] (Cbz-Leu-Leu-Leu-aldehyde), the “HA-DISC1 protein expression after MG132” value is reported as “transiently increased”.
